# Values quoted from earlier work as cited in US20080234132A1, “Microcin B17 Analogs And Methods For Their Preparation And Use” (priority 2004, published 2008).
# Assays:
# Conditions in all cases: Flatman et al., 2004; cited from earlier work
# [1] = molecular target: T1, E. coli DNA gyrase A2B2, MG1655 wild type (Escherichia coli, UniProt P0AES4+P0AES6)
# [2] = molecular target: T2, E. coli DNA gyrase A2B2, wild type (Escherichia coli, UniProt P0AES4+P0AES6)
# [3] = molecular target: T1, E. coli DNA gyrase A2B2, MG1655 wild type; remark: listed apart in the source
# [4] = molecular target: T2, E. coli DNA gyrase A2B2, wild type; remark: listed apart in the source
# T2 sequence (P0AES4 whole entry, one chain of several): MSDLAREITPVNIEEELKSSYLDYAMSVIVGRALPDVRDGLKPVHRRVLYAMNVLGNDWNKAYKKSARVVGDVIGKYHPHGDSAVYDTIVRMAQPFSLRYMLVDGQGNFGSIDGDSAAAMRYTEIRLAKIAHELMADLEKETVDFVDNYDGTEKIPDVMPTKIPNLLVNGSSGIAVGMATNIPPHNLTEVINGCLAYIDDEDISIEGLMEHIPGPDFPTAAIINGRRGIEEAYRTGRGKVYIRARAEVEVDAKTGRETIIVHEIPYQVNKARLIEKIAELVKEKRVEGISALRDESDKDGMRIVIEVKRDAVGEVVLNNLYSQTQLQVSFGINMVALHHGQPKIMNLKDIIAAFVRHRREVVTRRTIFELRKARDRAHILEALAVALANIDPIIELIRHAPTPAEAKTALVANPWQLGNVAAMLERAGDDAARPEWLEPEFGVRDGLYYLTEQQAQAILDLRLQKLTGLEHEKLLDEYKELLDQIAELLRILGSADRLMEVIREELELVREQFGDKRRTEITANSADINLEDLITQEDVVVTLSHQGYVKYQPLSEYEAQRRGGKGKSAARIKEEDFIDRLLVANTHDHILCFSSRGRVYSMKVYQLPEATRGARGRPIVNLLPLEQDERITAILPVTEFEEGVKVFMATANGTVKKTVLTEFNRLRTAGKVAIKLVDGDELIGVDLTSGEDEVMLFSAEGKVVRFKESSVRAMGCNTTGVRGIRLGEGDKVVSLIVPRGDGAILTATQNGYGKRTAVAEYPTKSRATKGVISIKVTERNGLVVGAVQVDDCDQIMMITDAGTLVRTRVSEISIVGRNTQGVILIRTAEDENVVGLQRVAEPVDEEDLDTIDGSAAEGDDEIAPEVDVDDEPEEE
# T1 sequence (P0AES4 whole entry, one chain of several): as above
compound,measurement,setting,value
CC(=O)O[C@@H]1[C@@H](C)O[C@@H](c2ccc3c(c2O)[C@@H](O)[C@]24O[C@@]2(C3=O)[C@@]2(O)C(=O)C=C(C)C[C@@]2(O)C[C@@H]4O)C[C@H]1OC(=O)/C=C/C=C/C=C/C=C/C(=O)Nc1c(O)c2ccc(O)c(Cl)c2oc1=O [simocyclinone D8],Inhibition of ATPase reaction,[1],not the ATPase reaction
same,Cleavage complex formation / quinolone cleavage,[2],does not stimulate the gyrase-dependent cleavage complex formation but antagonizes quinolone cleavage
same,Inhibition of supercoiling reaction,[3],inhibits the supercoiling and relaxation reactions
same,Inhibition of relaxation reaction,[4],inhibits the supercoiling and relaxation reactions
